Laboratory results published in US20100069393A1, “METHOD OF TREATMENT AND AGENTS USEFUL FOR SAME” (PRANA BIOTECHNOLOGY LIMITED, priority 2006, published 2010).

What was measured:
[1] = Cytotoxicity: viability of M17 cells; conditions: human, M17 neuroblastoma cells, Cytotoxicity (% viable at 1 and 10 uM); for viability at 1 uM: test compound 1 uM; for viability at 10 uM: test compound 10 uM
[2] = Neurotoxicity assay: MTS viability of primary cortical neuronal cultures; format: cell-based, mouse; conditions: BL6Jx129sv, mouse, primary cortical neuronal cultures, Neuronal cells, read-out: Cytotoxicity (% viable at 1 and 10 uM); for viability at 4 days, 1 uM: test compound 1 uM; for viability at 4 days, 10 uM: test compound 10 uM
Protocol: Media was then replaced with Neurobasal media (Invitrogen Life Technologies) and B27 supplements (Invitrogen Life Technologies). Cultures were maintained at 37° C. in 5% CO2. Prior to experimentation, the culture medium was replaced with Neurobasal media and B27 minus antioxidants (Invitrogen Life Technologies).
Cell viability is determined using the MTS assay. Culture medium is replaced with fresh neurobasal medium plus B27 supplements minus antioxidants. 1/10th volume MTS solution (Cell Titre 96 Aqueous One, Promega Corporation) and incubated at 37° C., 2 hrs. 200 microlitre aliquots are measured with a spectrophotometer at 560 nm.
Neuronal cortical cells were cultured for five days as per Assay 2 in NB media and B27 supplement.
On day six the test compounds were added to the neuronal cell cultures in NB media and B27 supplement minus antioxidants.
Test compounds were dissolved in 100% DMSO to a concentration of 2.5 mM (10 mM if excess compound was weighed out per vial—then diluted to 2.5 mM). […] Test compounds were not added directly to cells, instead they were added to a 48 well ‘Drug Plate’ as comprised below:
The Drug Plate was incubated at 37° C. for 15 mins. 200 μl of each well was added in triplicate to the corresponding cell plate. The cell plate was incubated at 37 C, for 4 days.
On completion of the assay, 1/10 volume MTS was added per well of plate (i.e. 25 μl/250 μl). The plates were incubated at 37 C for 2 hrs, and then absorbance was read at 560 nm.

Structure (SMILES)	viability at 1 uM [1] [%]	viability at 10 uM [1] [%]	viability at 4 days, 1 uM [2] [%]	viability at 4 days, 10 uM [2] [%]
O=C1NC(=O)c2cc(-n3cnc4c(O)cccc4c3=O)ccc21	102	103	–	–
Cc1noc(-n2cnc3c(O)c(Cl)cc(Cl)c3c2=O)c1C	99.6	95.4	–	–
CCC(C)Cn1cnc2c(O)cccc2c1=O (stereo not shown)	103	47.2	–	–
O=c1c2cccc(O)c2ncn1CCc1ccccn1	107	96.2	–	–
O=C1c2ccccc2C(=O)N1CCn1cnc2c(O)c(Cl)cc(Cl)c2c1=O	104	101	–	–
O=c1c2cccc(O)c2ncn1-c1nc2ccc(F)cc2s1	99.1	73.7	–	–
O=C(Nc1nc2ccc(F)cc2s1)c1cnc2c(O)cccn2c1=O	60.1	34.2	–	–
O=c1c2cccc(O)c2ncn1Cc1ccc(F)cc1	97.2	60.5	–	–
CCN(CC)C(=O)Cn1cnc2c(O)c(I)ccc2c1=O	92.2	98.7	–	–
O=c1c2cccc(O)c2ncn1-c1ccc(F)cc1F	104	104	–	–
O=c1c2cccc(O)c2ncn1-c1ccc(F)cc1	92.7	67.5	–	–
O=c1c2c(Cl)cc(Cl)c(O)c2nc2n1CCC2	115	93.9	–	–
O=C(Nc1ccc(F)cc1F)c1cnc2c(O)cccn2c1=O	99.4	67.1	–	–
CCc1cnc2c(O)cccn2c1=S	93.3	73.7	–	–
O=C(NCc1ccc(F)cc1)c1cnc2c(O)cccn2c1=O	76.7	54.2	–	–
O=c1c2cccc(O)c2ncn1Cc1ccncc1	105	104	–	–
O=c1c2cccc(O)c2ncn1CC1CC1	104	111	–	–
CCN(CC)C(=O)Cn1cnc2c(O)c(Cl)cc(Cl)c2c1=O	122	104	–	–
CCN(CC)C(=O)Cn1cnc2c(O)cccc2c1=O	118	102	–	–
O=c1c2cccc(O)c2ncn1Cc1ccccc1	98.5	90.4	–	–
CCCCCn1cnc2c(O)c(Cl)cc(Cl)c2c1=O	81.3	56.8	–	–
CCCS(=O)(=O)NCCn1cnc2c(O)c(I)ccc2c1=O	104	98.6	–	–
CCN(CC)CCn1cnc2c(O)c(I)ccc2c1=O	106	41.4	–	–
O=c1c2c(Cl)ccc(O)c2ncn1Cc1ccccn1	93.6	88.4	–	–
COc1ccc(-n2cnc3c(O)cccc3c2=O)cn1	97.8	110	–	–
O=C(Nc1cnc2ccccc2c1)c1cnc2c(O)cccn2c1=O	102	32.8	–	–

Structure (SMILES)	viability at 1 uM [1] [%]	viability at 10 uM [1] [%]	viability at 4 days, 1 uM [2] [%]	viability at 4 days, 10 uM [2] [%]
CCc1cnc2c(O)cccn2c1=O	96.1	27.1	–	–
CCCn1cnc2c(O)ccc(Cl)c2c1=O	89.4	79.4	–	–
CCNCCn1cnc2c(O)c(Cl)cc(Cl)c2c1=O	100	107	–	–
CCCc1cnc2c(O)c(Cl)ccn2c1=O	98.1	38.9	–	–
O=c1c2c(Cl)cc(Cl)c(O)c2ncn1CCN1Cc2ccccc2C1	103	62.1	–	–
O=c1c(CCCC2CCSS2)cnc2c(O)cccn12 (stereo not shown)	106	27.2	–	–
CCCCc1cnc2c(O)c(-c3cccc(OC)c3)ccn2c1=O	94.5	59.1	–	–
O=c1c2c(Cl)cc(Cl)c(O)c2ncn1-c1nc2ccccc2s1	82.7	63.9	–	–
Nn1cnc2c(O)c(Cl)cc(Cl)c2c1=O	113	104	103	101
O=c1c2cccc(O)c2ncn1Cc1ccccn1	109	96	–	–
CNS(=O)(=O)Cc1ccc(-n2cnc3c(O)c(Cl)cc(Cl)c3c2=O)cc1	93	98	–	–
O=C(Cn1cnc2c(O)cccc2c1=O)Nc1ccccn1	110	98.2	–	–
O=c1c2c(Cl)cc(I)c(O)c2ncn1Cc1ccccn1	102	99.2	–	–
CCCCn1cnc2c(O)c(Cl)cc(Cl)c2c1=O	105	95.4	104	85
O=c1c2c(Cl)cc(Cl)c(O)c2ncn1CCNC1CC1	98.8	96.2	–	–
O=c1c2c(Cl)cc(Cl)c(O)c2ncn1CC1CCN(Cc2ccccc2)CC1	109	83.4	–	–
O=C1c2ccccc2C(=O)N1CCn1cnc2c(O)cccc2c1=O	104	106	–	–
CC(C)Cn1c(CN(C)C)nc2c(O)c(Cl)cc(Cl)c2c1=O	104	61.5	–	–
Cc1nc2ccccc2c(=O)n1O	101	115	–	–
O=c1c2ccc(I)c(O)c2ncn1CCNS(=O)(=O)c1ccc(F)cc1	96.5	43	–	–
O=c1c(-c2ccc(F)cc2)cnc2c(O)cccn12	75.3	33.8	–	–
CCCCc1cnc2c(O)c(-c3cccnc3)ccn2c1=O	92.1	38.2	–	–
CCn1cnc2c(O)ccc(Cl)c2c1=O	101	85.4	–	–
O=c1c2cccc(O)c2ncn1-c1cccnc1	106	110	–	–
CCC(C)Cn1cnc2c(O)c(Cl)cc(Cl)c2c1=O (stereo not shown)	85.1	39.4	–	–
O=c1c2cccc(O)c2ncn1Cc1nc2ccccc2[nH]1	107	108	–	–

Structure (SMILES)	viability at 1 uM [1] [%]	viability at 10 uM [1] [%]	viability at 4 days, 1 uM [2] [%]	viability at 4 days, 10 uM [2] [%]
O=c1c2c(Cl)cc(I)c(O)c2ncn1-c1cccnc1	97.4	95	–	–
NCc1ccc2c(Cl)cc(Cl)c(O)c2n1	–	–	100	80
CCCCCn1cnc2c(O)c(I)ccc2c1=O	86.3	38.5	–	–
Nc1cnc2c(O)c(Cl)cc(Cl)c2c1	–	–	94	10
Cc1cccc(-c2cc(Cl)c3cccnc3c2O)c1	–	–	98	73
CC(=O)NCc1ccc2cccc(O)c2n1	–	–	100	91
CCC(C)Cn1cnc2c(O)c(I)ccc2c1=O (stereo not shown)	42.8	19.3	–	–
O=c1c2cccc(O)c2ncn1-c1nc2ccccc2[nH]1	108	103	–	–
Oc1c(-c2ccsc2)cc(Cl)c2cccnc12	–	–	93	31
CCCCc1cnc2c(O)c(-c3ccc(F)cc3)ccn2c1=O	101	37.9	–	–
CCCNC(=O)Cn1cnc2c(O)c(I)ccc2c1=O	84.3	95.5	–	–
Oc1ccccc1-c1cc(Cl)c2cccnc2c1O	–	–	100	70
CC(Br)CCn1cnc2c(O)c(Cl)cc(Cl)c2c1=O (stereo not shown)	–	–	101	73
Oc1c(-c2cc(Cl)c3cccnc3c2O)cc(Cl)c2cccnc12	–	–	97	84
CCCCNC(=O)c1cnc2c(O)cccn2c1=O	98.8	48.4	–	–
CSc1ccccc1-c1ccc2cccc(O)c2n1	–	–	114	112
O=C(CNC(=O)c1cc(O)c2cccc(O)c2n1)NCc1ccccn1	–	–	93	93
O=C1c2ccccc2C(=O)N1CCn1cnc2c(O)c(I)ccc2c1=O	127	105	–	–
O=C(O)CNC(=O)c1ccc2cccc(O)c2n1	–	–	100	89
CCN(CC)CCNC(=O)c1cnc2c(O)cccn2c1=O	115	103	–	–
Oc1c(-c2cc(F)cc(F)c2)cc(Cl)c2cccnc12	–	–	90	66
CCOC(=O)c1cnc2c(O)c(CC)ncc2c1	–	–	103	92
Nc1ccccc1NC(=O)c1cc(O)c2cccc(O)c2n1	–	–	98	82
O=c1c2ccc(I)c(O)c2ncn1-c1ccc(F)cc1	94.6	30.2	–	–
CCCCc1cnc2c(O)c(-c3ccc(OC)cc3)ccn2c1=O	79.2	64.4	–	–
O=c1c2c(Cl)ccc(O)c2ncn1CC1CC1	86.3	57.6	–	–
